# Experimental data: ChEMBL document CHEMBL1212733, “Chemical genomics in Escherichia coli identifies an inhibitor of bacterial lipoprotein targeting” (Nat Chem Biol, 2009)
# Calls of active or inactive are those of the source. The calls are words filed in the database; no cut-off is given here.
# Legend:
# Escherichia coli [1] = test: Antibacterial activity against Escherichia coli K-12 MG1655 after 16 hrs by microbroth dilution method; type: functional; conditions: K-12 MG1655, 16 h
# Burkholderia cepacia = test: Antibacterial activity against Burkholderia cepacia B154408 after 16 hrs by microbroth dilution method; type: functional; conditions: B154408, 16 h
# [2] = tested on: Stenotrophomonas maltophilia; test: Antibacterial activity against Stenotrophomonas maltophilia B22020 after 16 hrs by microbroth dilution method; type: functional; conditions: B22020, 16 h
# Bacillus subtilis = test: Antibacterial activity against Bacillus subtilis 168 after 16 hrs by microbroth dilution method; type: functional; conditions: subsp. subtilis str. 168, 16 h
# Candida albicans = test: Antifungal activity against Candida albicans after 16 hrs by microbroth dilution method; type: functional
# Pseudomonas aeruginosa = test: Antibacterial activity against Pseudomonas aeruginosa PAO1 after 16 hrs by microbroth dilution method; type: functional; conditions: PAO1, 16 h
# HeLa = test: Cytotoxicity against human HeLa cells after 24 hrs by Cell Titre-Glo luminescent assay; type: cell-based
# Escherichia coli [3] = test: Antibacterial activity against Escherichia coli ATCC 25922 after 16 hrs by microbroth dilution method; type: functional; conditions: ATCC 25922, 16 h
# Micrococcus luteus = test: Antibacterial activity against Micrococcus luteus after 16 hrs by microbroth dilution method; type: functional
# Staphylococcus aureus = test: Antibacterial activity against Staphylococcus aureus after 16 hrs by microbroth dilution method; type: functional
# [4] = biological target: Small ribosomal subunit protein bS18 (Escherichia coli (strain K12)) (UniProt P0A7T7); test: Inhibition of IPTG-stimulated Escherichia coli K-12 rpSR at 4 fold MIC by microarray analysis
# [5] = biological target: tRNA threonylcarbamoyladenosine biosynthesis protein TsaE (Escherichia coli (strain K12)) (UniProt P0AF67); test: Inhibition of IPTG-stimulated Escherichia coli K-12 yjeE at 8 fold MIC by microarray analysis
# [6] = biological target: Small ribosomal subunit protein bS18 (Escherichia coli (strain K12)) (UniProt P0A7T7); test: Inhibition of IPTG-stimulated Escherichia coli K-12 rpSR at 8 fold MIC by microarray analysis
# [7] = biological target: tRNA threonylcarbamoyladenosine biosynthesis protein TsaE (Escherichia coli (strain K12)) (UniProt P0AF67); test: Inhibition of IPTG-stimulated Escherichia coli K-12 yjeE at 4 fold MIC by microarray analysis
# [8] = biological target: T1, Outer membrane protein TolC (Escherichia coli (strain K12)) (UniProt P02930); test: Inhibition of IPTG-stimulated Escherichia coli K-12 tolC at 4 fold MIC by microarray analysis
# T1 sequence (whole entry): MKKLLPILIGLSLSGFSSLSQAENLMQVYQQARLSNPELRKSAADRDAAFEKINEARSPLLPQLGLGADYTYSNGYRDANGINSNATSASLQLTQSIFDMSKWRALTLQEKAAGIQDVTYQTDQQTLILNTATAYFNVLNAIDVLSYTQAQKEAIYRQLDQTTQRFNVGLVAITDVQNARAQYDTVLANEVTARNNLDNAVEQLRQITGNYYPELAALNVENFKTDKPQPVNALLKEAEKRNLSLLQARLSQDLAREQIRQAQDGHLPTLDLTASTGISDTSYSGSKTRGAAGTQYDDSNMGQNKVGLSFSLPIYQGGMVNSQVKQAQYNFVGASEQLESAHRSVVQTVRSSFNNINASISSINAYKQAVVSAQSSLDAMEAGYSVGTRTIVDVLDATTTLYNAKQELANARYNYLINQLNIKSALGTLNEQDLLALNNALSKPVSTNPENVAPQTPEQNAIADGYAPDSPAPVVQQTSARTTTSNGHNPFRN
# [9] = biological target: T2, Dihydrofolate synthase/folylpolyglutamate synthase (Escherichia coli (strain K12)) (UniProt P08192); test: Inhibition of IPTG-stimulated Escherichia coli K-12 folC at 4 fold MIC by microarray analysis
# T2 sequence (whole entry): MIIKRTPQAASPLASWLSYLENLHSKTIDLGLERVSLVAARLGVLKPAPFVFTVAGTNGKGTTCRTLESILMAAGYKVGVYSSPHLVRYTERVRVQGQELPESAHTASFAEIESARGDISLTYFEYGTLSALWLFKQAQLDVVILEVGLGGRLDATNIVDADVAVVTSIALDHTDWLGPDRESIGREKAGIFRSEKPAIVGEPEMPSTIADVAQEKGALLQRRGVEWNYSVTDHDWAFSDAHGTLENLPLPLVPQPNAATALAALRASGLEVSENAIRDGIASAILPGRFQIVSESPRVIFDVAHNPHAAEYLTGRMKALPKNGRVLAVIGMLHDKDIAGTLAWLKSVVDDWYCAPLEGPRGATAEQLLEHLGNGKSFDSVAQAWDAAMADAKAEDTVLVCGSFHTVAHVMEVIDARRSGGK
# [10] = biological target: T1, Outer membrane protein TolC (Escherichia coli (strain K12)); test: Inhibition of IPTG-stimulated Escherichia coli K-12 tolC at 8 fold MIC by microarray analysis
# [11] = biological target: Cell division protein FtsX (Escherichia coli (strain K12)) (UniProt P0AC30); test: Inhibition of IPTG-stimulated Escherichia coli K-12 ftsX at 4 fold MIC by microarray analysis
# [12] = biological target: Intermembrane phospholipid transport system binding protein MlaB (Escherichia coli (strain K12)) (UniProt P64602); test: Inhibition of IPTG-stimulated Escherichia coli K-12 yrbB at 4 fold MIC by microarray analysis
# [13] = biological target: Protein YdfW (Escherichia coli (strain K12)) (UniProt P76164); test: Inhibition of IPTG-stimulated Escherichia coli K-12 ydfW at 4 fold MIC by microarray analysis
# [14] = biological target: UDP-N-acetylglucosamine 1-carboxyvinyltransferase (Escherichia coli K-12) (UniProt P0A749); test: Inhibition of IPTG-stimulated Escherichia coli K-12 murA at 4 fold MIC by microarray analysis
# [15] = biological target: Glutamyl-tRNA reductase (Escherichia coli (strain K12)) (UniProt P0A6X1); test: Inhibition of IPTG-stimulated Escherichia coli K-12 hemA at 4 fold MIC by microarray analysis
# [16] = biological target: tRNA(Ile)-lysidine synthase (Escherichia coli (strain K12)) (UniProt P52097); test: Inhibition of IPTG-stimulated Escherichia coli K-12 mesJ at 4 fold MIC by microarray analysis
# [17] = biological target: Multifunctional CCA protein (Escherichia coli (strain K12)) (UniProt P06961); test: Inhibition of IPTG-stimulated Escherichia coli K-12 cca at 4 fold MIC by microarray analysis
# [18] = biological target: Large ribosomal subunit protein bL28 (Escherichia coli (strain K12)) (UniProt P0A7M2); test: Inhibition of IPTG-stimulated Escherichia coli K-12 rpmB at 4 fold MIC by microarray analysis
# [19] = biological target: D-alanine--D-alanine ligase B (Escherichia coli K-12) (UniProt P07862); test: Inhibition of IPTG-stimulated Escherichia coli K-12 ddlB at 4 fold MIC by microarray analysis
# [20] = biological target: Large ribosomal subunit protein uL2 (Escherichia coli (strain K12)) (UniProt P60422); test: Inhibition of IPTG-stimulated Escherichia coli K-12 rplB at 4 fold MIC by microarray analysis
# [21] = biological target: Cell shape-determining protein MreC (Escherichia coli (strain K12)) (UniProt P16926); test: Inhibition of IPTG-stimulated Escherichia coli K-12 mreC at 4 fold MIC by microarray analysis
# [22] = biological target: UDP-N-acetylmuramoylalanine--D-glutamate ligase (Escherichia coli K-12) (UniProt P14900); test: Inhibition of IPTG-stimulated Escherichia coli K-12 murD at 4 fold MIC by microarray analysis
# [23] = biological target: Thymidylate kinase (Escherichia coli (strain K12)) (UniProt P0A720); test: Inhibition of IPTG-stimulated Escherichia coli K-12 tmk at 4 fold MIC by microarray analysis
# [24] = biological target: Glycerate 3-kinase (Escherichia coli (strain K12)) (UniProt P77364); test: Inhibition of IPTG-stimulated Escherichia coli K-12 glxK at 4 fold MIC by microarray analysis
# [25] = biological target: Phosphatidylglycerol--prolipoprotein diacylglyceryl transferase (Escherichia coli (strain K12)) (UniProt P60955); test: Inhibition of IPTG-stimulated Escherichia coli K-12 umpA at 4 fold MIC by microarray analysis
# [26] = biological target: T1, Outer membrane protein TolC (Escherichia coli (strain K12)); test: Inhibition of IPTG-stimulated Escherichia coli K-12 tolC at 16 fold MIC by microarray analysis
# [27] = biological target: Long-chain fatty acid transport protein (Escherichia coli (strain K12)) (UniProt P10384); test: Inhibition of IPTG-stimulated Escherichia coli K-12 fadl at 4 fold MIC by microarray analysis
# [28] = biological target: 4-hydroxy-tetrahydrodipicolinate reductase (Escherichia coli (strain K12)) (UniProt P04036); test: Inhibition of IPTG-stimulated Escherichia coli K-12 dapB at 4 fold MIC by microarray analysis
# [29] = biological target: T3, Uncharacterized protein YdiL (Escherichia coli (strain K12)) (UniProt P76196); test: Inhibition of IPTG-stimulated Escherichia coli K-12 ydiL at 8 fold MIC by microarray analysis
# T3 sequence (whole entry): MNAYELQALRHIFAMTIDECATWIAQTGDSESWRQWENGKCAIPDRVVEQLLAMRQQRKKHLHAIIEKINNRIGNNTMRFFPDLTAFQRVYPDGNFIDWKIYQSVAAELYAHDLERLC
# [30] = biological target: Transcriptional regulatory protein BaeR (Escherichia coli (strain K12)) (UniProt P69228); test: Inhibition of IPTG-stimulated Escherichia coli K-12 baeR at 4 fold MIC by microarray analysis
# [31] = biological target: Antitoxin YefM (Escherichia coli (strain K12)) (UniProt P69346); test: Inhibition of IPTG-stimulated Escherichia coli K-12 yefM at 4 fold MIC by microarray analysis
# [32] = biological target: T3, Uncharacterized protein YdiL (Escherichia coli (strain K12)); test: Inhibition of IPTG-stimulated Escherichia coli K-12 ydiL at 16 fold MIC by microarray analysis
# Sequence of Phosphatidylglycerol--prolipoprotein diacylglyceryl transferase (Escherichia coli (strain K12)) (P60955 whole entry): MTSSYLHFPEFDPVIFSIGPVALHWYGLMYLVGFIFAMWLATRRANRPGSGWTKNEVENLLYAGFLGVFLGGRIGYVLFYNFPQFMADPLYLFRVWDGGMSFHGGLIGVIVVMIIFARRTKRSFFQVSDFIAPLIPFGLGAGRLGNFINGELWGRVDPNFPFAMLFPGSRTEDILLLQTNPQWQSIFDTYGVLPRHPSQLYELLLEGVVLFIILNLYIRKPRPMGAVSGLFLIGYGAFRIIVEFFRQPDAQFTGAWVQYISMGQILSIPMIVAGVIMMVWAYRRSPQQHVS
# Sequence of Glutamyl-tRNA reductase (Escherichia coli (strain K12)) (P0A6X1 whole entry): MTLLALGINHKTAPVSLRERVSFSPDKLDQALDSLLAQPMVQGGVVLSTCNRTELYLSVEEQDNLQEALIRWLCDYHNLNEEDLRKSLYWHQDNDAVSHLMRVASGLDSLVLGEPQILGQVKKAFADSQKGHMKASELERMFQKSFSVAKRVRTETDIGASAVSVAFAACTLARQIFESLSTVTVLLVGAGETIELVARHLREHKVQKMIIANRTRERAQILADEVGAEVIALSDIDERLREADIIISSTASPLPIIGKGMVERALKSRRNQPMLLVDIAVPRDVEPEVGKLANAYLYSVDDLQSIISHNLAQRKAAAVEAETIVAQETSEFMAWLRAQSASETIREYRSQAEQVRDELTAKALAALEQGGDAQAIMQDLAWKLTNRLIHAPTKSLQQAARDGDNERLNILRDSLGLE
# Sequence of Protein YdfW (Escherichia coli (strain K12)) (P76164 whole entry): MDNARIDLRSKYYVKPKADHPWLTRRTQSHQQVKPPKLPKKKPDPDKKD
# Sequence of Cell division protein FtsX (Escherichia coli (strain K12)) (P0AC30 whole entry): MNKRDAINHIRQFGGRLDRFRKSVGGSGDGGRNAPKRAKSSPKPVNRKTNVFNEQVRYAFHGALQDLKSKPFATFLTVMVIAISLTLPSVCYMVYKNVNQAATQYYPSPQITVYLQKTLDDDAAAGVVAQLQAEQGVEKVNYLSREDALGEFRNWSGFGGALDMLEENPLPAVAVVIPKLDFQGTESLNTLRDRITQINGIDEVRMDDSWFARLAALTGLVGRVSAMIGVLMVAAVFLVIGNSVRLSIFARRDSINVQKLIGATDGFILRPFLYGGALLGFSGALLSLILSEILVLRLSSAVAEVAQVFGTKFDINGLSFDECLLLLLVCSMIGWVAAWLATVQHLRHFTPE
# Sequence of Antitoxin YefM (Escherichia coli (strain K12)) (P69346 whole entry): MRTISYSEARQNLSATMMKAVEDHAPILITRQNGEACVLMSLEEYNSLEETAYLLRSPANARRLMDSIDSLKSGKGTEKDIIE
# Sequence of Cell shape-determining protein MreC (Escherichia coli (strain K12)) (P16926 whole entry): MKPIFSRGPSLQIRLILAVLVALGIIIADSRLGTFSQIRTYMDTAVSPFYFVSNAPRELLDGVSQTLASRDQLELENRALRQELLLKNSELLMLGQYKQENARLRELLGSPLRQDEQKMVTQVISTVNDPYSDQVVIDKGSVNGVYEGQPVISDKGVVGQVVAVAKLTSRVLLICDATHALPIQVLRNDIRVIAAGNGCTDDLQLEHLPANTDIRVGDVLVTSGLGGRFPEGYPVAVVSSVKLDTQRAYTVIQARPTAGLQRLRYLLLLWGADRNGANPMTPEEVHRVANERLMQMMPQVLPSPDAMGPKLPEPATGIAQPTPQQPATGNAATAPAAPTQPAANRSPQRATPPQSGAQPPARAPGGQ
# Sequence of tRNA(Ile)-lysidine synthase (Escherichia coli (strain K12)) (P52097 whole entry): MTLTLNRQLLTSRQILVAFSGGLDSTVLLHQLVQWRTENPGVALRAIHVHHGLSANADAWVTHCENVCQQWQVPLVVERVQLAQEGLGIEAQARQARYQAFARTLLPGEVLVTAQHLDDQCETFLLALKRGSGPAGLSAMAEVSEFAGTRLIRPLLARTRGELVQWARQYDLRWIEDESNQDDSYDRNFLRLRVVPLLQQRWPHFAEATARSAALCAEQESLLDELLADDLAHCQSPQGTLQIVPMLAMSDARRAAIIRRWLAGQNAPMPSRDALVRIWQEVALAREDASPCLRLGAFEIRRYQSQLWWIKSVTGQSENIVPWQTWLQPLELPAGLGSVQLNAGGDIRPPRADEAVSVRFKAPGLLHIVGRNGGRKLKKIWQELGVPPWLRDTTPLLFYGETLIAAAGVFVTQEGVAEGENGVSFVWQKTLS
# Sequence of UDP-N-acetylmuramoylalanine--D-glutamate ligase (Escherichia coli K-12) (P14900 whole entry): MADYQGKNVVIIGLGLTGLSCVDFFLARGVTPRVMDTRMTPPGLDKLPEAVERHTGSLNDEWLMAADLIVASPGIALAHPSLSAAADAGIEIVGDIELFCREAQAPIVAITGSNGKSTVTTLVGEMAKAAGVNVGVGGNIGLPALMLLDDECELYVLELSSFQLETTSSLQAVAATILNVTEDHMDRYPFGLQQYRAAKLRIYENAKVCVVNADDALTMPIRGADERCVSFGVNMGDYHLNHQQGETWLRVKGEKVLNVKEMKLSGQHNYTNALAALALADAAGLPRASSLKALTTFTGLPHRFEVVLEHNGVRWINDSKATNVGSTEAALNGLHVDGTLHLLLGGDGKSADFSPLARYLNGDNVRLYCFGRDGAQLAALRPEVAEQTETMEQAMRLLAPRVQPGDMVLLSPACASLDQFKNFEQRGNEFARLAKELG
# Sequence of Transcriptional regulatory protein BaeR (Escherichia coli (strain K12)) (P69228 whole entry): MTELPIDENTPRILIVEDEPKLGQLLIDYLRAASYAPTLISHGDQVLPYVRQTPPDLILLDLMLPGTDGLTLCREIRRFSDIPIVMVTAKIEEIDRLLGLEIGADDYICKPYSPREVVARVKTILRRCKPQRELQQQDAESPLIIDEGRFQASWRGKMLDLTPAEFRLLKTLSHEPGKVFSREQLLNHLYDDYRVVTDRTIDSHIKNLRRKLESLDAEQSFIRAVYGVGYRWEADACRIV
# Sequence of UDP-N-acetylglucosamine 1-carboxyvinyltransferase (Escherichia coli K-12) (P0A749 whole entry): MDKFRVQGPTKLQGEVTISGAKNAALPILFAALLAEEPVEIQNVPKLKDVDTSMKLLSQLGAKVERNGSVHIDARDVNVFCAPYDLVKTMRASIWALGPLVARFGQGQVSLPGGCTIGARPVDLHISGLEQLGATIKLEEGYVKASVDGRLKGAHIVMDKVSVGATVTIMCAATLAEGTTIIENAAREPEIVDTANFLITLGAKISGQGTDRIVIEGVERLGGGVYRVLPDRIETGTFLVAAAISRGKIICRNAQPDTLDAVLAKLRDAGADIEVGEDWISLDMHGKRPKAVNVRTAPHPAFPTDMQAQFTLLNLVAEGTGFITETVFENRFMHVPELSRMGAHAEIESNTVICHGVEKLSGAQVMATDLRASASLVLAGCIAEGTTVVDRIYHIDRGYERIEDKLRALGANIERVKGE
# Sequence of 4-hydroxy-tetrahydrodipicolinate reductase (Escherichia coli (strain K12)) (P04036 whole entry): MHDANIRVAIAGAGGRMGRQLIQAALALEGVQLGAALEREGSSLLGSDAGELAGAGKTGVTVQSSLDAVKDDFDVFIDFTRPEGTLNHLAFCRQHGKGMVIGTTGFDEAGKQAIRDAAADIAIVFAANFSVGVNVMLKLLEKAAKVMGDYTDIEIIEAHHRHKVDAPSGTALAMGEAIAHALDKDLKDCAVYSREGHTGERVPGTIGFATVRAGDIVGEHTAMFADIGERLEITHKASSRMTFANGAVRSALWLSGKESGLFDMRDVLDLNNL
# Sequence of Long-chain fatty acid transport protein (Escherichia coli (strain K12)) (P10384 whole entry): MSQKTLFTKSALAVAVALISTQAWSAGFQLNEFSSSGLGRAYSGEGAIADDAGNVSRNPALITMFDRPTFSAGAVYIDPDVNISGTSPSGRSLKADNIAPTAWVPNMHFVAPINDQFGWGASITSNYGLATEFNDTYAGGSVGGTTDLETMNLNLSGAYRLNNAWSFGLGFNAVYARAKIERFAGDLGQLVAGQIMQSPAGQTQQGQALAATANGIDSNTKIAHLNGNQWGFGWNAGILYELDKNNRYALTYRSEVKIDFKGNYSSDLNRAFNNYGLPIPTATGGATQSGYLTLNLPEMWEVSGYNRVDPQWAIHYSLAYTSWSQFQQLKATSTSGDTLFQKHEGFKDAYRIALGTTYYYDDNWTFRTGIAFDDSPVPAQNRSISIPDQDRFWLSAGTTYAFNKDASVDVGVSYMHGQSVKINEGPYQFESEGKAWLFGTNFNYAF
# Sequence of Glycerate 3-kinase (Escherichia coli (strain K12)) (P77364 whole entry): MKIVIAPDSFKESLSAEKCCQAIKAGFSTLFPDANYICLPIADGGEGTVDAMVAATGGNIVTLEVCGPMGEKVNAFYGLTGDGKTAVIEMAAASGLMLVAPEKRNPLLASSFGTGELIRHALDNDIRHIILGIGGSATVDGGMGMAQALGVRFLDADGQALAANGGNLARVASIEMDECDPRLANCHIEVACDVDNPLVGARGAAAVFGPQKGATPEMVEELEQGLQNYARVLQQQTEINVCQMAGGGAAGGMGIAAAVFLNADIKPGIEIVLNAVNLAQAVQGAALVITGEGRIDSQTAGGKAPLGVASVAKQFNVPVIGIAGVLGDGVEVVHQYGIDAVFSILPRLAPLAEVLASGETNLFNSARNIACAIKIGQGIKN
# Sequence of Thymidylate kinase (Escherichia coli (strain K12)) (P0A720 whole entry): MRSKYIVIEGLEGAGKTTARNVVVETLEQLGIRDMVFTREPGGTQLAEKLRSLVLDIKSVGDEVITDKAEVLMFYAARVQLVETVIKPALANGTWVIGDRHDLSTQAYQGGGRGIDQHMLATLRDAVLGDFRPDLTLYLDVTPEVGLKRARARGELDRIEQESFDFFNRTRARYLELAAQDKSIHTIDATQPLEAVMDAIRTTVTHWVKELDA
# Sequence of Multifunctional CCA protein (Escherichia coli (strain K12)) (P06961 whole entry): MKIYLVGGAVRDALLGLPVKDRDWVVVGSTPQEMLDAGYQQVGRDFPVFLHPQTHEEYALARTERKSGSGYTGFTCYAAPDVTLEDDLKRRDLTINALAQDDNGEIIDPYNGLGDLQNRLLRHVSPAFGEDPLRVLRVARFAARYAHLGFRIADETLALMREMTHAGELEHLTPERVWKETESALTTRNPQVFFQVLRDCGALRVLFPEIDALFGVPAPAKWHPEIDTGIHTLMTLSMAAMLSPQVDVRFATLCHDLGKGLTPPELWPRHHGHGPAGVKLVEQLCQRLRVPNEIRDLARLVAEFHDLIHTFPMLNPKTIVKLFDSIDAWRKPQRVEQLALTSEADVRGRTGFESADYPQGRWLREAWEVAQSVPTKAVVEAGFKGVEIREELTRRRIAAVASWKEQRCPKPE
structure (smiles),measurement,setting,value
COc1ccc(CCN2CN=C(SCc3ccc(Cl)c(Cl)c3)NC2)cc1OC,MIC,Escherichia coli [1],8 µg/mL
CN1CN=C(SCc2ccc(Cl)cc2)NC1,MIC,Burkholderia cepacia,> 256 µg/mL
same,MIC,[2],> 256 µg/mL
same,MIC,Escherichia coli [1],8 µg/mL
same,MIC,Bacillus subtilis,> 256 µg/mL
same,MIC,Candida albicans,> 256 µg/mL
same,MIC,Pseudomonas aeruginosa,> 256 µg/mL
same,Activity,HeLa,> 256 µg/mL
same,MIC,Escherichia coli [3],256 µg/mL
same,MIC,Micrococcus luteus,> 256 µg/mL
same,MIC,Staphylococcus aureus,> 256 µg/mL
COc1ccc(CCN2CN=C(SCc3ccccc3)NC2)cc1OC,MIC,Burkholderia cepacia,128 µg/mL
same,MIC,[2],16 µg/mL
same,MIC,Escherichia coli [1],256 µg/mL
same,MIC,Bacillus subtilis,> 256 µg/mL
same,MIC,Candida albicans,> 256 µg/mL
same,MIC,Pseudomonas aeruginosa,32 µg/mL
same,Activity,HeLa,> 256 µg/mL
same,MIC,Escherichia coli [3],8 µg/mL
same,MIC,Micrococcus luteus,> 256 µg/mL
same,MIC,Staphylococcus aureus,> 256 µg/mL
COc1ccc(CCN2CN=C(SCc3cc(Cl)cc(Cl)c3)NC2)cc1OC,MIC,Escherichia coli [1],16 µg/mL
COc1ccc(CSC2=NCN(CCc3ccc(OC)c(OC)c3)CN2)cc1,MIC,Escherichia coli [1],512 µg/mL
CN[C@@H]1[C@H](O)[C@H](NC)[C@H]2O[C@@]3(O)C(=O)C[C@@H](C)O[C@H]3O[C@@H]2[C@H]1O,inhibition,[4],Active
same,inhibition,[5],Active
same,inhibition,[6],Active
same,inhibition,[7],Active
Clc1ccc(CCN2CN=C(SCc3ccc(Cl)cc3)NC2)cc1,MIC,Escherichia coli [1],32 µg/mL
COc1cc(Cc2cnc(N)nc2N)cc(OC)c1OC,inhibition,[4],Active
COc1cccc(CCN2CN=C(SCc3ccc(Cl)cc3)NC2)c1,MIC,Escherichia coli [1],16 µg/mL
COc1ccc(CCN2CN=C(SCc3ccc([N+](=O)[O-])cc3)NC2)cc1OC,MIC,Escherichia coli [1],> 256 µg/mL
Clc1ccc(CSC2=NCN(CCc3ccccc3)CN2)cc1,MIC,Escherichia coli [1],8 µg/mL
COc1ccc(CCN2CN=C(SCc3ccc(Cl)cc3)NC2)cc1,MIC,Escherichia coli [1],64 µg/mL
Cc1cc(NS(=O)(=O)c2ccc(N)cc2)no1,inhibition,[8],Active
same,inhibition,[4],Active
same,inhibition,[9],Active
same,inhibition,[10],Active
same,inhibition,[5],Active
same,inhibition,[6],Active
same,inhibition,[7],Active
CCN1CN=C(SCc2ccc(Cl)cc2)NC1,MIC,Escherichia coli [1],8 µg/mL
COc1ccc(CCN2CN=C(SCc3ccccc3Cl)NC2)cc1OC,MIC,Escherichia coli [1],> 256 µg/mL
COc1ccc(CCN2CN=C(SCc3cccc(Cl)c3)NC2)cc1OC,MIC,Escherichia coli [1],> 256 µg/mL
COc1ccc(CCN2CN=C(SCc3ccc(I)cc3)NC2)cc1OC,MIC,Escherichia coli [1],256 µg/mL
COc1ccc(CCN2CN=C(SCc3ccc(C)cc3)NC2)cc1OC,MIC,Escherichia coli [1],64 µg/mL
COc1ccc(CN2CN=C(SCc3ccc(Cl)cc3)NC2)cc1OC,MIC,Escherichia coli [1],32 µg/mL
O=CN(O)CCCP(=O)(O)O,inhibition,[8],Active
same,inhibition,[11],Active
same,inhibition,[12],Active
same,inhibition,[13],Active
same,inhibition,[14],Active
same,inhibition,[15],Active
same,inhibition,[16],Active
same,inhibition,[17],Active
same,inhibition,[18],Active
same,inhibition,[10],Active
same,inhibition,[19],Active
same,inhibition,[20],Active
same,inhibition,[21],Active
same,inhibition,[22],Active
same,inhibition,[23],Active
same,inhibition,[24],Active
same,inhibition,[25],Active
same,inhibition,[26],Active
same,inhibition,[27],Active
same,inhibition,[28],Active
same,inhibition,[29],Active
same,inhibition,[30],Active
same,inhibition,[31],Active
same,inhibition,[32],Active
same,inhibition,[7],Active
COc1ccc(CCN2CN=C(SCc3ccc(Br)cc3)NC2)cc1OC,MIC,Escherichia coli [1],8 µg/mL
